{
  "source": "patent US20040038855A1",
  "about": "(priority 1999, published 2004)",
  "key": {"[1]": {"target": "T1, human Alpha-1a Adrenergic receptor (Homo sapiens, UniProt P35348)", "T1 construct": "expressed in transfected cells", "T1 sequence (P35348 1-466)": "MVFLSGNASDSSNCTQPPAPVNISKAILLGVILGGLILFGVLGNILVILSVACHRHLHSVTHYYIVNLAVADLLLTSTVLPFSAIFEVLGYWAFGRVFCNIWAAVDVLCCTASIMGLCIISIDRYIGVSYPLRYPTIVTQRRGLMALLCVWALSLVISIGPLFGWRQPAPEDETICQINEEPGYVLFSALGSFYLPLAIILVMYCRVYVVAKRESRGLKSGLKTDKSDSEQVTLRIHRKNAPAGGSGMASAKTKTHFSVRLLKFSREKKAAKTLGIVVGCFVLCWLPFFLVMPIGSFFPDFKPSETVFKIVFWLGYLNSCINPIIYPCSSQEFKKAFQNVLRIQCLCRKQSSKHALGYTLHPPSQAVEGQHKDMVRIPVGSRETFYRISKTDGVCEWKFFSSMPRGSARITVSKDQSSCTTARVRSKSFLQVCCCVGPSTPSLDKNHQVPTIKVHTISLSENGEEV", "assay": "Binding affinity at the human alpha-1A adrenergic receptor", "how_it_was_run": "(§1)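 Receptor binding read-out throughout; membranes expressing human D1 or D2 receptor were used for those two targets.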"}, "[2]": {"target": "T2, human α1D adrenergic receptor (Homo sapiens, UniProt P25100)", "T2 construct": "expressed in transfected cells", "T2 sequence (P25100 1-572)": "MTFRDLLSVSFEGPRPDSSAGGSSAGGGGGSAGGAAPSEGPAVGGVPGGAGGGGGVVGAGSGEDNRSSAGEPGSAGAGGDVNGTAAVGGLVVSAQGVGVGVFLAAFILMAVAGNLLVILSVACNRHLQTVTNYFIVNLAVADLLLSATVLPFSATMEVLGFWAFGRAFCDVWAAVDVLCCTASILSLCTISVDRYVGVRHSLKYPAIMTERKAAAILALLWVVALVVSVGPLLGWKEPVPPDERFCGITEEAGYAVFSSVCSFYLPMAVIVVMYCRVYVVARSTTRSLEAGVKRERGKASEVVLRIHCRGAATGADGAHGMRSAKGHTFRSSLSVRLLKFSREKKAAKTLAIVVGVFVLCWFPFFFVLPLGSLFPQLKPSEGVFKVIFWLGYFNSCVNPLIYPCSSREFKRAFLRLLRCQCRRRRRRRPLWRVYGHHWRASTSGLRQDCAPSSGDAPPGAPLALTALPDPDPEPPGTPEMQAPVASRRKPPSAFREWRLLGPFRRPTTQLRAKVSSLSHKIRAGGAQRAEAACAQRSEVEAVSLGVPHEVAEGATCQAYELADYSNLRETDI", "assay": "Binding affinity at the human α1D adrenergic receptor", "conditions": "Table 3d; read-out: hα1D Ki", "description": "(§2) Other receptors: Cell membranes expressing human dopamine D1, D2, D4 and rat D3 receptors were purchased through BioSignal, Inc. (Montreal, Canada). Binding assays using the histamine H1 receptor; dopamine receptors; and α1A, α1B, and α2 adrenergic receptors may be carried out according to the procedures described in U.S. Pat. No. 5,780,485, the disclosure of which is hereby incorporated by reference in its entirety into this application. Binding assays using the dopamine D5 receptor may be carried out according to the procedures described in U.S. Pat. No. 5,882,855, the disclosure of which is hereby incorporated by reference in its entirety into this application. Binding assays for the human α1D adrenergic receptor may be carried out according to the procedures described in U.S. Pat. No. 6,156,518, the disclosure of which is hereby incorporated by reference in its entirety into this application."}, "[3]": {"target": "T3, human Histamine H1 receptor (Homo sapiens, UniProt P35367)", "T3 construct": "expressed in transfected cells", "T3 sequence (P35367 whole entry)": "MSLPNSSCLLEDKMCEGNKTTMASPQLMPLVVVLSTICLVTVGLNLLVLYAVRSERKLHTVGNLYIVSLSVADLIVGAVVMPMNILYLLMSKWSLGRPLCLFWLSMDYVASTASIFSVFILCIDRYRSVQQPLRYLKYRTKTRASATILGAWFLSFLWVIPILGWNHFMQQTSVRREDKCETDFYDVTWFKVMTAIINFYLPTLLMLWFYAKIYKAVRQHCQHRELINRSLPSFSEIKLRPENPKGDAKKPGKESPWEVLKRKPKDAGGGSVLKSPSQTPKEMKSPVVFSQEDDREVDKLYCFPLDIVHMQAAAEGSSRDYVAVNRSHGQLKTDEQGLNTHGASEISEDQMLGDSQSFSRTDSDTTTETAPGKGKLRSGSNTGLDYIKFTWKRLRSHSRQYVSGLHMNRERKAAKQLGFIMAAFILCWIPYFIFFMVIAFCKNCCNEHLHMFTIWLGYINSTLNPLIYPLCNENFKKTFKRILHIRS", "assay": "Binding affinity at the human histamine H1 receptor", "how_it_was_run": "as §1"}, "[4]": {"target": "rat D3 receptor (Rattus norvegicus, UniProt P19020)", "sequence (P19020 whole entry)": "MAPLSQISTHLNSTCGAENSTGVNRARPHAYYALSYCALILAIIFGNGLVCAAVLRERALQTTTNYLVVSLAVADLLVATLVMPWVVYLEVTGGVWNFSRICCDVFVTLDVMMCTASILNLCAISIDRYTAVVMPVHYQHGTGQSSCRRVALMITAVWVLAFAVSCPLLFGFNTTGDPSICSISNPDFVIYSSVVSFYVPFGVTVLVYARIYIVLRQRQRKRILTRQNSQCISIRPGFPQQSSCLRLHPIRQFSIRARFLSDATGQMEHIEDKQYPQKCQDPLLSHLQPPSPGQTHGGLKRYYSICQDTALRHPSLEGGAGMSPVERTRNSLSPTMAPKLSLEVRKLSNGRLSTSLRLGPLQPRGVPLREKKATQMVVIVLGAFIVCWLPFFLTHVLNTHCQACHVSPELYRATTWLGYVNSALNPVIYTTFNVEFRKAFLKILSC", "assay": "Binding affinity at the rat dopamine D3 receptor", "conditions": "Table 3d; read-out: rD3 Ki", "description": "as §2"}, "[5]": {"target": "T4, human dopamine D5 receptor (Homo sapiens, UniProt P21918)", "T4 construct": "expressed in transfected cells", "T4 sequence (P21918 whole entry)": "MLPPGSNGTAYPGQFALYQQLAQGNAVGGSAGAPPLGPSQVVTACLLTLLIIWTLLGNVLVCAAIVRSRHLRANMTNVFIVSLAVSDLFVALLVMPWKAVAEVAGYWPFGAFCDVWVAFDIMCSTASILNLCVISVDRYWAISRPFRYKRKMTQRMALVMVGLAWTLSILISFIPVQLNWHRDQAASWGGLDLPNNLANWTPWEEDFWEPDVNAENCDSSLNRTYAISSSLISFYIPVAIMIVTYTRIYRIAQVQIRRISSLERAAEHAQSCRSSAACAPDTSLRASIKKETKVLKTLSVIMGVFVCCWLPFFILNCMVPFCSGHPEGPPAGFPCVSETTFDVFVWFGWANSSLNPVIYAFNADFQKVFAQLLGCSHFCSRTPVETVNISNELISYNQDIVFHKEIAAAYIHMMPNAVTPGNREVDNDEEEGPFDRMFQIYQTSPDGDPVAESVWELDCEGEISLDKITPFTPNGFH", "assay": "Binding affinity at the human dopamine D5 receptor", "conditions": "Table 3d; read-out: hD5 Ki", "description": "as §2"}, "[6]": {"target": "T5, human Dopamine D2 receptor (Homo sapiens, UniProt P14416)", "T5 construct": "purchased BioSignal, Inc. (Montreal, Canada)", "T5 sequence (P14416 whole entry)": "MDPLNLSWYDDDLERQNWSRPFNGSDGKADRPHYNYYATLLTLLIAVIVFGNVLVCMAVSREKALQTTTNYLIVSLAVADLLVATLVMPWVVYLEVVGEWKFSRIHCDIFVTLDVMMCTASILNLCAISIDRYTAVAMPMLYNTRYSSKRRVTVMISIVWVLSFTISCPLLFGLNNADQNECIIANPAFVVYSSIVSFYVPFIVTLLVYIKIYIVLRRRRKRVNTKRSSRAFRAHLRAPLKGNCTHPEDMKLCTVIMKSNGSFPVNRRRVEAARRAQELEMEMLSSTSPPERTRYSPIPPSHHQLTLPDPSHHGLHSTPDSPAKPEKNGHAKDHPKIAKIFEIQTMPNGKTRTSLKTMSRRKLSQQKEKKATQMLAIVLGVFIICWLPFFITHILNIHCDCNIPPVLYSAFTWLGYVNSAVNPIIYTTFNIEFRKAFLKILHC", "assay": "Binding affinity at the human dopamine D2 receptor", "conditions": "Table 3d; * = >50000; read-out: hD2 Ki", "how_it_was_run": "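Affinities were measured in binding assays. Human D1 and D2 receptors were supplied as membranes of expressing cells, while α2A adrenoceptor and D5 binding followed separately described procedures.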"}, "[7]": {"target": "T6, human H2 histamine receptor (Homo sapiens, UniProt P25021)", "T6 construct": "expressed in transfected cells", "T6 sequence (P25021 whole entry)": "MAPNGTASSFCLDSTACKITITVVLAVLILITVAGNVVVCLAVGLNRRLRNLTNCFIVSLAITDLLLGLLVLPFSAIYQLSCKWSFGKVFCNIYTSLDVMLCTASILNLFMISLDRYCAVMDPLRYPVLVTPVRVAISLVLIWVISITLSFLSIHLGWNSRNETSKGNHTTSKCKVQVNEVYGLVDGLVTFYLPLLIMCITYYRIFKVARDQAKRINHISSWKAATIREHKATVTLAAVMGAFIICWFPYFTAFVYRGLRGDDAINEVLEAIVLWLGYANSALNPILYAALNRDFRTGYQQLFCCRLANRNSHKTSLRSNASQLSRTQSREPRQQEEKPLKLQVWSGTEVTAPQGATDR", "assay": "Binding affinity at the human histamine H2 receptor", "description": "Binding studies for the β-adrenoceptor may be performed according to the method of Riva and Creese, 1989. Binding assays for the remainder of the receptors may be carried out according to the procedures described in U.S. Pat. No. 5,780,485, the disclosure of which is hereby incorporated by reference in its entirety into this application."}, "[8]": {"target": "T7, human dopamine D1 receptor (Homo sapiens, UniProt P21728)", "T7 construct": "purchased BioSignal, Inc. (Montreal, Canada)", "T7 sequence (P21728 whole entry)": "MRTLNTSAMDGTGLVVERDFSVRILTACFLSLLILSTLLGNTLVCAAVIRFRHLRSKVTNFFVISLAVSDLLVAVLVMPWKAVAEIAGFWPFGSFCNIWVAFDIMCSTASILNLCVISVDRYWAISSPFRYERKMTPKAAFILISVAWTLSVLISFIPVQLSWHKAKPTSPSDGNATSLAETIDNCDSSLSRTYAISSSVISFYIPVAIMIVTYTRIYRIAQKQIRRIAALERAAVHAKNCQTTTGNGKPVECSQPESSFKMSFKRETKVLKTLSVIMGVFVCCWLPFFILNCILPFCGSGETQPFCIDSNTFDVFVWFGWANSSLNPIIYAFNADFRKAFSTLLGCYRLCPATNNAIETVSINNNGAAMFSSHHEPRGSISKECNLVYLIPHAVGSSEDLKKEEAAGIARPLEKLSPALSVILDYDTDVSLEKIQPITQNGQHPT", "assay": "Binding affinity at the human dopamine D1 receptor", "conditions": "Table 3d; read-out: hD1 Ki", "description": "as §2"}, "[9]": {"target": "T8, human 5HT2A receptor (Homo sapiens, UniProt P28223)", "T8 construct": "expressed in transfected cells; host or cells: COS7 cells, transient, DEAE dextran, vector pCEXV3", "T8 sequence (P28223 whole entry)": "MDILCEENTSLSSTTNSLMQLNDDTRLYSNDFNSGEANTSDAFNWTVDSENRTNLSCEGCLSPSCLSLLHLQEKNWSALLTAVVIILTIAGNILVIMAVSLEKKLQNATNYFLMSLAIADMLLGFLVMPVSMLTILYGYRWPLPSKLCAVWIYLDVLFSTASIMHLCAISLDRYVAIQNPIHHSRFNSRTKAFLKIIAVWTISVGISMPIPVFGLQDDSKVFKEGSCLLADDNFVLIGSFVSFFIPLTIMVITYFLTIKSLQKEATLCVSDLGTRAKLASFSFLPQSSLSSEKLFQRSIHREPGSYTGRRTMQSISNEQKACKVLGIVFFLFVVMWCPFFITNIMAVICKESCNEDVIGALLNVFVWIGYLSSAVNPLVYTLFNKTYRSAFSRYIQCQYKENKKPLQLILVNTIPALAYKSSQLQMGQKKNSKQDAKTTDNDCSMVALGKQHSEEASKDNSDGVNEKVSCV", "assay": "Binding affinity at the human 5HT2A receptor ([3H]ketanserin)", "conditions": "Table 3e; read-out: h5HT2A Ki", "protocol": "Human 5HT2A Receptor: The coding sequence of the human 5HT2A receptor was obtained from a human brain cortex cDNA library, and cloned into the cloning site of pCEXV3 eukaryotic expression vector. This construct was transfected into COS7 cells by the DEAE dextran method (Cullen, 1987). Cells were harvested after 72 hours and lysed by sonication in 5 mM Tris HCl, 5 mM EDTA, pH 7.5. The cell lysates were subjected to centrifugation at 1000 rpm for 5 minutes at 4° C., and the supernatant was subjected to centrifugation at 30,000×g for 20 minutes at 4° C. The pellet was suspended in 50 mM Tris HCl buffer (pH 7.7 at room temperature) containing 10 mM MgSO4, 0.5 mM EDTA, and 0.1% ascorbate. […] Nonspecific binding was defined by the addition of 10 μM mianserin. The bound radioligand was separated by filtration through GF/B filters using a cell harvester."}, "[10]": {"target": "T9, human dopamine D4 receptor (Homo sapiens, UniProt P21917)", "T9 construct": "purchased BioSignal, Inc. (Montreal, Canada)", "T9 sequence (P21917 whole entry)": "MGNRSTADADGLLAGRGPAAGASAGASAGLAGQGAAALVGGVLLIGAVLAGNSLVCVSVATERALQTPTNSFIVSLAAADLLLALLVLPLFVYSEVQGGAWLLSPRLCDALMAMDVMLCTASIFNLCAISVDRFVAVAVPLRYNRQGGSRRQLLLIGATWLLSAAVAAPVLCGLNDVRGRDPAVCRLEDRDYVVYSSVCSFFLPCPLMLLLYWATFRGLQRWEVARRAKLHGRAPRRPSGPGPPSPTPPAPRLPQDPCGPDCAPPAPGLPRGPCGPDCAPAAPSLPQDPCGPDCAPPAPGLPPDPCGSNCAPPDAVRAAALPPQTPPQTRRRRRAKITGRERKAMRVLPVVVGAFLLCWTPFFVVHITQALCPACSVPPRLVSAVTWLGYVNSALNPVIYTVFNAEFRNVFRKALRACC", "assay": "Binding affinity at the human dopamine D4 receptor", "conditions": "Table 3d; * = >50000; read-out: hD4 Ki", "description": "as §2"}},
  "note": "Where a name gives a salt, the structure may show the parent alone. Read-outs that look alike come from different tables or passages of the source.",
  "data": [
    {"compound": "2-(3,4-DIFLUOROPHENYL)4,5-DIHYDROIMIDAZOLE-1-CARBOXYLIC ACID {3-[4-PHENYL-4-(4-BROMO-5-METHYLTHIOPNEN-2-YL)]-PROPYL}-AMIDE [Example 19]", "values": [
      {"measurement": "Ki", "setting": "[1]; Table 3d, read-out: hα1A Ki", "value": 0.0025, "unit": "µM"},
      {"measurement": "Ki", "setting": "[2]", "value": 0.517, "unit": "µM"},
      {"measurement": "Ki", "setting": "[3]; Table 3e, read-out: hH1 Ki", "value": 0.011, "unit": "µM"}
    ]},
    {"compound": "COC(=O)C1=C(C)NC(=O)N(C(=O)NCCCN2CCC3(CC2)OCc2ccccc23)C1c1ccc2nonc2c1", "note": "(single isomer, unassigned) [Example 18, HYDROCHLORIDE]", "values": [
      {"measurement": "Ki", "setting": "[4]", "value": 1.22, "unit": "µM"},
      {"measurement": "Ki", "setting": "[1]", "value": 0.0017, "unit": "µM"},
      {"measurement": "Ki", "setting": "[5]", "value": 2.54, "unit": "µM"},
      {"measurement": "Ki", "setting": "[6]", "value": 0.624, "unit": "µM"},
      {"measurement": "Ki", "setting": "[2]", "value": 0.612, "unit": "µM"},
      {"measurement": "Ki", "setting": "[3]", "value": 0.031, "unit": "µM"},
      {"measurement": "Ki", "setting": "[7]", "value": 0.944, "unit": "µM"},
      {"measurement": "Ki", "setting": "[8]", "value": 0.596, "unit": "µM"},
      {"measurement": "Ki", "setting": "[9]", "value": 1.57, "unit": "µM"}
    ]},
    {"compound": "COCC1=C(C(=O)OC)C(c2ccc(F)c(F)c2)N(C(=O)NCCCN2CCC(c3cccc(NC(C)=O)c3)CC2)C(=O)N1", "note": "(single isomer, unassigned; (-)) [Example 1, (−)-1,2,3,6-TETRAHYDRO-1-{N-[4-(3,-ACETAMIDO)-PHENYLPIPERIDIN-1-YL]PROPYL}CARBOXAMIDO-4-METHOXYMETHYL-6-(3,4-DIFLUORO-PHENYL)-2-OXOPYRIMIDINE-5-CARBOXYLIC ACID METHYL ESTER]", "values": [
      {"measurement": "Ki", "setting": "[1]; Table 3d, read-out: hα1A Ki", "value": 2.21, "unit": "µM"},
      {"measurement": "Ki", "setting": "[2]", "value": 1.31, "unit": "µM"}
    ]},
    {"compound": "COCC1=C(C(=O)OC)[C@H](c2ccc(F)c(F)c2)N(C(=O)NCCCN2CCC(c3cccc(NC(C)=O)c3)CC2)C(=O)N1", "note": "[Example 10, (+)-1,2,3,6-TETRAHYDRO-1-{N-[4-(3,-ACETAMIDO)-PHENYLPIPERIDIN-1-YL]PROPYL}CARBOXAMIDO-4-METHOXYMETHYL-6-(3,4-DIFLUORO-PHENYL)-2-OXOPYRIMIDINE-5-CARBOXYLIC ACID METHYL ESTER]", "values": [
      {"measurement": "Ki", "setting": "[4]", "value": 5.89, "unit": "µM"},
      {"measurement": "Ki", "setting": "[1]; Table 3d, read-out: hα1A Ki", "value": 0.0458, "unit": "µM"},
      {"measurement": "Ki", "setting": "[5]", "value": 0.773, "unit": "µM"},
      {"measurement": "Ki", "setting": "[6]", "value": "> 50", "unit": "µM"},
      {"measurement": "Ki", "setting": "[2]", "value": 12.3, "unit": "µM"},
      {"measurement": "Ki", "setting": "[3]; Table 3e, read-out: hH1 Ki", "value": 4.88, "unit": "µM"},
      {"measurement": "Ki", "setting": "[10]", "value": "> 50", "unit": "µM"},
      {"measurement": "Ki", "setting": "[7]; Table 3e, * = >50000, read-out: hH2 Ki", "value": "> 50", "unit": "µM"},
      {"measurement": "Ki", "setting": "[8]", "value": 1.93, "unit": "µM"}
    ]},
    {"compound": "COC(=O)C1=C(C)NC(=O)N(C(=O)NCCCN2CCC3(CC2)OCc2ccccc23)C1c1ccc(F)c(F)c1", "note": "(stereo not drawn) [Example 20, 4-(3,4-DIFLUORPHENYL)-6-METHYL-2-OXO-3-{[3-(4-SPIRO[ISOBENZOFURAN-1(3H),4′-PIPERIDINE]PROPYL}-1,2,3,4-TETRAHYDROPYRIMIDINE-5-CARBOXYLIC ACID METHYL ESTER]", "values": [
      {"measurement": "Ki", "setting": "[2]", "value": 0.207, "unit": "µM"},
      {"measurement": "Ki", "setting": "[3]", "value": 0.039, "unit": "µM"},
      {"measurement": "Ki", "setting": "[7]", "value": 1.91, "unit": "µM"},
      {"measurement": "Ki", "setting": "[9]", "value": 2.82, "unit": "µM"}
    ]}
  ]
}
